Data as given in US20240026339A1, “COMPOSITION AND THE USE OF CELL LYSIS REAGENTS” (Vilnius University, priority 2022, published 2024).
Where “and” joins values, the source holds several entries; their conditions need not be identical. Equal values may be shown once. Where a name gives a salt, the structure may show the parent alone.

System: K-562 cells
Experiment: Cell lysis efficiency and cDNA yield in bulk (lysis and RT in one mix, PCR, BioAnalyzer/Qubit)
Assay type: cell-based
Conditions: cDNA yield divided by cDNA yield with 0.1% NP40 of the same Part
Protocol: The cells, lysis reagents and reverse transcription reagents are mixed together to create one reaction mix. The mRNA released from the lysed cells is reverse transcribed using oligonucleotides into a copy DNA (cDNA). The resulting cDNA is then purified using AMPure purification kit, PCR-amplified and analysed by capillary electrophoresis (BioAnalyzer). The DNA amount is also evaluated by fluorometer (Qubit) and the cDNA yields between different lysis conditions is compared to the reference (0.1% NP40).
The detailed composition and reaction conditions are provided below. Briefly, cell lysis and RT reaction were carried out in bulk with MCF7 and K562 cells. Samples containing 0.02%-0.6% of different cell lysis reagent were evaluated. After the RT reaction, cDNA was pass through a column to remove cell debris and gDNA, purified with 1.2× AMPure, eluted in 20 μl water, amplified by 12-cycles of PCR, purified reaction product with 1.2× AMPure and analyzed on BioAnalyzer chip.
Different sets of detergents were prepared in DEPC-water. Each set was tested separately. The cDNA yield for each detergent was compared to the cDNA yield obtained with 0.1% NP40 final concentration.
4. Setting Up RT Reaction: • 1. […] The final volume of reaction was 40 uL. • 4. RT reaction was carried out at 50° C. for 60 min followed by inactivation at 85° C. for 5 min. • 5. After RT reaction samples were immediately processed further by passing them through Zymo column for 1 min at 10000 g. • 6. The flow through fraction was cleaned up with 1.2× AMPure beads and eluted in 20 μL of water and processed further.
5. cDNA Amplification: • 7. cDNA amplification mix was prepared as follows:
• 8. 12 μL of cDNA amplification mix were mixed with 8 μL of purified cDNA material resulting in a total of 20 μL solution. • 9. Each sample was transferred to thermocycler and PCR program was started:
• 10. Amplified cDNA was cleaned up with 1.2× AMPure beads and eluted to 20 μL of water. • 11. DNA concentration of each sample was measured with Qubit. Samples were frozen only after cDNA amplification if needed). • 12. Calculate the dilution factor needed to reach 1 ng/uL for 0.1% NP40 sample, which is used as a reference. • 13. Load 1 μL of each sample (diluted as much times as 0.1% NP40 sample) on BioAnalyzer (BioA) HS DNA kit/chip and calculate the cDNA yield (ng/μl).
The “Relative lysis efficiency” was estimated by first quantifying the cDNA yield (ng/μl) obtained at a given lysis condition and then dividing the said cDNA yield by the cDNA yield obtained when using 0.1% NP40.

Row | Compound | Relative lysis efficiency (single detergent at 0.1%) | Relative lysis efficiency (single detergent at 0.02%) | Relative lysis efficiency (single detergent at 0.2%) | Relative lysis efficiency (single detergent at 0.3%) | Relative lysis efficiency (single detergent at 0.4%) | Relative lysis efficiency (single detergent at 0.6%)
1 | Triton X-100 | 0.78 |  |  |  |  | 
2 | CCCCCCCCS[C@@H]1O[C@H](CO)[C@@H](O)[C@H](O)[C@H]1O [n-octyl-β-D-thioglucopyranoside (OTG), n-octyl-β-D-thioglucopyranoside] | 0.31 | 0.37 |  |  |  | 
3 | C[C@H](CCC(=O)O)[C@H]1CC[C@H]2[C@@H]3CC[C@@H]4C[C@H](O)CC[C@]4(C)[C@H]3C[C@H](O)[C@]12C [Deoxycholic acid Na salt] | 0.24 | 0.51 |  |  |  | 
4 | CCCCCCCCCc1ccc(OCCOCCOCCOCCOCCOCCOCCOCCOCCO)cc1 [Igepal CO630] | 0.98 |  |  |  |  | 
5 | Tween 20 | 0.98 and 0.99 |  | 0.99 | 0.99 | 0.99 | 1.02
6 | Tween 60 | 0.65 |  |  |  |  | 
7 | (1-dodecyl) trimethylamonium bromide | 0.25 | 0.88 |  |  |  | 
8 | NP40 | 1.00 |  | 1.01 |  | 0.98 | 1.18
9 | C[C@H](CCC(=O)NCCC[N+](C)(C)CCCS(=O)(=O)[O-])[C@H]1CC[C@H]2[C@@H]3[C@H](O)C[C@@H]4C[C@H](O)CC[C@]4(C)[C@H]3C[C@H](O)[C@]12C [CHAPS] | 0.43 | 0.43 |  |  |  | 
10 | CCCCCCCCCCCCN(C)CC(=O)O [N-Laurylsarcosine] | 0.35 | 0.41 |  |  |  | 
11 | Tergitol NP40 | 0.63 |  |  |  |  | 
12 | Tween 80 | 0.50 and 0.73 |  | 0.69 | 0.72 | 0.71 | 0.70
13 | CCCCCCCCO[C@@H]1O[C@H](CO)[C@@H](O)[C@H](O)[C@H]1O [n-octyl-β-D-glucopyranoside (OBG), n-octyl-β-D-glucopyranoside] | 0.36 | 0.36 |  |  |  | 
14 | C[C@@H]1CC[C@@]2(OC1)O[C@H]1[C@@H](O)[C@H]3[C@@H]4CC[C@H]5C[C@@H](O[C@@H]6O[C@H](CO)[C@H](O[C@@H]7O[C@H](CO)[C@@H](O)[C@H](O[C@@H]8OC[C@@H](O)[C@H](O)[C@H]8O)[C@H]7O[C@@H]7O[C@H](CO)[C@H](O)[C@H](O[C@@H]8O[C@H](CO)[C@@H](O)[C@H](O)[C@H]8O)[C@H]7O)[C@H](O)[C@H]6O)[C@H](O)C[C@]5(C)[C@H]4CC[C@]3(C)[C@H]1[C@@H]2C [Digitonin] | 0.85 | 0.85 |  |  |  | 
